Tested on: MDA-MB-468 spheroids with HUVEC/MSC, viability
Assay: Anticancer human tumor MDA-MB-468 cell line growth inhibition [PI3K];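 further: spheroids exposed to agents for seven days before readout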;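 on viability, T/C: 100% = DMSO vehicle control viability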
Conditions: for viability, T/C: stronger effect = lower value
Outline: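 Targeted small molecules plus PI3K inhibitors, half-log dose series from Cmax (default top 10 microM), were applied to heterotypic spheroids of cancer cells with HUVEC and MSCs. Viability indicated growth inhibition.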

[1] = curve of first compound, second compound 0.00316 µM
[2] = curve of first compound, second compound 0.01 µM
[3] = curve of first compound, second compound 0.0316 µM
[4] = curve of first compound, second compound 0.1 µM
[5] = curve of first compound, second compound 0.316 µM
[6] = curve of first compound, second compound 1 µM
[7] = second compound 0.00316 µM, first compound 0.000316 µM
[8] = second compound 0.00316 µM, first compound 0.001 µM
[9] = second compound 0.00316 µM, first compound 0.00316 µM
[10] = second compound 0.00316 µM, first compound 0.01 µM
[11] = second compound 0.00316 µM, first compound 0.0316 µM
[12] = second compound 0.00316 µM, first compound 0.1 µM
[13] = second compound 0.01 µM, first compound 0.000316 µM
[14] = second compound 0.01 µM, first compound 0.001 µM
[15] = second compound 0.01 µM, first compound 0.00316 µM
[16] = second compound 0.01 µM, first compound 0.01 µM
[17] = second compound 0.01 µM, first compound 0.0316 µM
[18] = second compound 0.01 µM, first compound 0.1 µM
[19] = second compound 0.0316 µM, first compound 0.000316 µM
[20] = second compound 0.0316 µM, first compound 0.001 µM
[21] = second compound 0.0316 µM, first compound 0.00316 µM
[22] = second compound 0.0316 µM, first compound 0.01 µM
[23] = second compound 0.0316 µM, first compound 0.0316 µM
[24] = second compound 0.0316 µM, first compound 0.1 µM
[25] = second compound 0.1 µM, first compound 0.000316 µM
[26] = second compound 0.1 µM, first compound 0.001 µM
[27] = second compound 0.1 µM, first compound 0.00316 µM
[28] = second compound 0.1 µM, first compound 0.01 µM
[29] = second compound 0.1 µM, first compound 0.0316 µM
[30] = second compound 0.1 µM, first compound 0.1 µM
[31] = second compound 0.316 µM, first compound 0.000316 µM
[32] = second compound 0.316 µM, first compound 0.001 µM
[33] = second compound 0.316 µM, first compound 0.00316 µM
[34] = second compound 0.316 µM, first compound 0.01 µM
[35] = second compound 0.316 µM, first compound 0.0316 µM
[36] = second compound 0.316 µM, first compound 0.1 µM
[37] = second compound 1 µM, first compound 0.000316 µM
[38] = second compound 1 µM, first compound 0.001 µM
[39] = second compound 1 µM, first compound 0.00316 µM
[40] = second compound 1 µM, first compound 0.01 µM
[41] = second compound 1 µM, first compound 0.0316 µM
[42] = second compound 1 µM, first compound 0.1 µM
[43] = curve of first compound, second compound 3.16 µM
[44] = curve of first compound, second compound 10 µM
[45] = second compound 3.16 µM, first compound 0.0316 µM
[46] = second compound 3.16 µM, first compound 0.1 µM
[47] = second compound 10 µM, first compound 0.0316 µM
[48] = second compound 10 µM, first compound 0.1 µM

`CC(C)n1nc(-c2ccc3oc(N)nc3c2)c2c(N)ncnc21` + CC(Nc1ccc2c(c1)OCCn1cc(N3C(=O)OCC3C(F)F)nc1-2)C(N)=O was tested, and the IC50 [1] was 48.5 nM, the IC50 [2] was 41.8 nM and the IC50 [3] was 38.5 nM. The IC50 [4] was 36.7 nM, the IC50 [5] was 31.2 nM and the IC50 [6] was 23 nM. It also gave a viability, T/C [7] of 89.9%, a viability, T/C [8] of 100% and a viability, T/C [9] of 91.8%. It also gave a viability, T/C [10] of 92.6%, a viability, T/C [11] of 69.5% and a viability, T/C [12] of 16.7%. The viability, T/C [13] was 95.1%, the viability, T/C [14] was 96.8% and the viability, T/C [15] was 88%. For the same compound, the viability, T/C [16] was 99%, the viability, T/C [17] was 59.2% and the viability, T/C [18] was 21.1%. The viability, T/C [19] was 100%, the viability, T/C [20] was 94.8% and the viability, T/C [21] was 77.4%. It also gave a viability, T/C [22] of 83%, a viability, T/C [23] of 58.5% and a viability, T/C [24] of 15%. It also gave a viability, T/C [25] of 103%, a viability, T/C [26] of 82.4% and a viability, T/C [27] of 87.8%. For the same compound, the viability, T/C [28] was 82.3%, the viability, T/C [29] was 54.2% and the viability, T/C [30] was 11.8%. The viability, T/C [31] was 87.2%, the viability, T/C [32] was 82.8% and the viability, T/C [33] was 87.6%. It also gave a viability, T/C [34] of 84.9%, a viability, T/C [35] of 49.6% and a viability, T/C [36] of 12.7%. For the same compound, the viability, T/C [37] was 105%, the viability, T/C [38] was 80.8% and the viability, T/C [39] was 75.2%. For the same compound, the viability, T/C [40] was 70.8%, the viability, T/C [41] was 46.6% and the viability, T/C [42] was 12.3%.

With `Cn1cnc2c(F)c(Nc3ccc(Br)cc3Cl)c(C(=O)NOCCO)cc21` the viability, T/C (compound 0.00949 µM) was 82.8% [middle of 4 runs], the viability, T/C (compound 0.03 µM) was 83.3% [middle of 4 runs] and the viability, T/C (compound 0.0949 µM) was 86.8% [middle of 4 runs]. For the same compound, the viability, T/C (compound 0.3 µM) was 87.3% [middle of 4 runs], the viability, T/C (compound 0.949 µM) was 88.8% [middle of 4 runs] and the viability, T/C (compound 3 µM) was 64.7% [middle of 4 runs]. The IC50 (curve of compound) was over 3000 nM.

For `CC(C)NCC(C(=O)N1CCN(c2ncnc3c2C(C)CC3O)CC1)c1ccc(Cl)cc1` (stereo not given) + Cc1nc(NC(=O)N2CCCC2C(N)=O)sc1-c1ccnc(C(C)(C)C(F)(F)F)c1, the IC50 [3] was 973 nM, the IC50 [4] was 1200 nM and the IC50 [5] was 674 nM. For the same compound, the IC50 [6] was 424 nM, the IC50 [43] was 211 nM and the IC50 [44] was under 31.6 nM. The viability, T/C [23] was 76.9%, the viability, T/C [24] was 92.2% and the viability, T/C (second compound 0.0316 µM, first compound 0.316 µM) was 60.9%. For the same compound, the viability, T/C (second compound 0.0316 µM, first compound 1 µM) was 50.9%, the viability, T/C (second compound 0.0316 µM, first compound 3.16 µM) was 35.1% and the viability, T/C (second compound 0.0316 µM, first compound 10 µM) was 23.2%. The viability, T/C [29] was 84.8%, the viability, T/C [30] was 83.5% and the viability, T/C (second compound 0.1 µM, first compound 0.316 µM) was 68%. It also gave a viability, T/C (second compound 0.1 µM, first compound 1 µM) of 53.4%, a viability, T/C (second compound 0.1 µM, first compound 3.16 µM) of 34.2% and a viability, T/C (second compound 0.1 µM, first compound 10 µM) of 18.4%. The viability, T/C [35] was 84.6%, the viability, T/C [36] was 71.8% and the viability, T/C (second compound 0.316 µM, first compound 0.316 µM) was 61%. The viability, T/C (second compound 0.316 µM, first compound 1 µM) was 46.9%, the viability, T/C (second compound 0.316 µM, first compound 3.16 µM) was 26.7% and the viability, T/C (second compound 0.316 µM, first compound 10 µM) was 19.5%. For the same compound, the viability, T/C [41] was 95.8%, the viability, T/C [42] was 66.7% and the viability, T/C (second compound 1 µM, first compound 0.316 µM) was 56.9%. For the same compound, the viability, T/C (second compound 1 µM, first compound 1 µM) was 41.9%, the viability, T/C (second compound 1 µM, first compound 3.16 µM) was 23.2% and the viability, T/C (second compound 1 µM, first compound 10 µM) was 18%. It also gave a viability, T/C [45] of 62.9%, a viability, T/C [46] of 61% and a viability, T/C (second compound 3.16 µM, first compound 0.316 µM) of 42.5%. The viability, T/C (second compound 3.16 µM, first compound 1 µM) was 33%, the viability, T/C (second compound 3.16 µM, first compound 3.16 µM) was 19.3% and the viability, T/C (second compound 3.16 µM, first compound 10 µM) was 14.8%. For the same compound, the viability, T/C [47] was 32.1%, the viability, T/C [48] was 28.8% and the viability, T/C (second compound 10 µM, first compound 0.316 µM) was 22%. For the same compound, the viability, T/C (second compound 10 µM, first compound 1 µM) was 19.1%, the viability, T/C (second compound 10 µM, first compound 3.16 µM) was 9.63% and the viability, T/C (second compound 10 µM, first compound 10 µM) was 6.41%.

Compound `Cn1ncnc1[C@H]1c2n[nH]c(=O)c3cc(F)cc(c23)N[C@@H]1c1ccc(F)cc1` + COc1c(OCCCN2CCOCC2)ccc2c3n(c(=NC(=O)c4cnc(N)nc4)nc12)CCN3 has an IC50 [1] of over 100 nM, an IC50 [2] of over 100 nM and an IC50 [3] of 83.4 nM. It also gave an IC50 [4] of 23.1 nM, an IC50 [5] of under 0.316 nM and an IC50 [6] of under 0.316 nM. For the same compound, the viability, T/C [7] was 103%, the viability, T/C [8] was 89% and the viability, T/C [9] was 83.8%. It also gave a viability, T/C [10] of 79.1%, a viability, T/C [11] of 69.4% and a viability, T/C [12] of 57.9%. For the same compound, the viability, T/C [13] was 79.7%, the viability, T/C [14] was 89.8% and the viability, T/C [15] was 92%. For the same compound, the viability, T/C [16] was 74.7%, the viability, T/C [17] was 70.5% and the viability, T/C [18] was 50.1%. The viability, T/C [19] was 75.9%, the viability, T/C [20] was 84.6% and the viability, T/C [21] was 70.2%. For the same compound, the viability, T/C [22] was 67.1%, the viability, T/C [23] was 57.6% and the viability, T/C [24] was 48.4%. For the same compound, the viability, T/C [25] was 60.8%, the viability, T/C [26] was 65.1% and the viability, T/C [27] was 63.4%. The viability, T/C [28] was 55.3%, the viability, T/C [29] was 48% and the viability, T/C [30] was 34.7%. The viability, T/C [31] was 29.5%, the viability, T/C [32] was 27.4% and the viability, T/C [33] was 26.4%. The viability, T/C [34] was 26.9%, the viability, T/C [35] was 26.7% and the viability, T/C [36] was 17.5%. For the same compound, the viability, T/C [37] was 3.21%, the viability, T/C [38] was 2.83% and the viability, T/C [39] was 2.99%. It also gave a viability, T/C [40] of 4.15%, a viability, T/C [41] of 3.68% and a viability, T/C [42] of 2.25%.

`CC(=O)c1c(C)c2cnc(Nc3ccc(N4CCNCC4)cn3)nc2n(C2CCCC2)c1=O` + CC(Nc1ncnc2nc[nH]c12)c1cc2cccc(Cl)c2c(=O)n1-c1ccccc1 was tested, and the IC50 [3] was over 100 nM, the IC50 [4] was over 100 nM and the IC50 [5] was over 100 nM. For the same compound, the IC50 [6] was over 100 nM, the IC50 [43] was over 100 nM and the IC50 [44] was under 0.316 nM. It also gave a viability, T/C [19] of 92.6%, a viability, T/C [20] of 93.9% and a viability, T/C [21] of 84.6%. For the same compound, the viability, T/C [22] was 103%, the viability, T/C [23] was 99.7% and the viability, T/C [24] was 88.1%. For the same compound, the viability, T/C [25] was 88.6%, the viability, T/C [26] was 91.2% and the viability, T/C [27] was 84.1%. It also gave a viability, T/C [28] of 92.7%, a viability, T/C [29] of 80% and a viability, T/C [30] of 86.4%. It also gave a viability, T/C [31] of 84.7%, a viability, T/C [32] of 78.9% and a viability, T/C [33] of 81.3%. For the same compound, the viability, T/C [34] was 72.8%, the viability, T/C [35] was 90% and the viability, T/C [36] was 78.5%. It also gave a viability, T/C [37] of 66.4%, a viability, T/C [38] of 71.4% and a viability, T/C [39] of 59.3%. The viability, T/C [40] was 83.3%, the viability, T/C [41] was 76.2% and the viability, T/C [42] was 62.8%. For the same compound, the viability, T/C (second compound 3.16 µM, first compound 0.000316 µM) was 59.6%, the viability, T/C (second compound 3.16 µM, first compound 0.001 µM) was 53.1% and the viability, T/C (second compound 3.16 µM, first compound 0.00316 µM) was 62.3%. It also gave a viability, T/C (second compound 3.16 µM, first compound 0.01 µM) of 58.1%, a viability, T/C [45] of 67.2% and a viability, T/C [46] of 58.8%. It also gave a viability, T/C (second compound 10 µM, first compound 0.000316 µM) of 38.9%, a viability, T/C (second compound 10 µM, first compound 0.001 µM) of 38.5% and a viability, T/C (second compound 10 µM, first compound 0.00316 µM) of 39.3%. For the same compound, the viability, T/C (second compound 10 µM, first compound 0.01 µM) was 46.7%, the viability, T/C [47] was 45.7% and the viability, T/C [48] was 46.1%.
